“Also recorded” adds a separate entry of the source.
How the values were obtained:
mdx TS muscle fibers = assay: Intracellular recording of resting membrane potential in TS muscle fibers after chronic treatment; assay type: in vivo, mdx mice; settings: sulfasalazine 100 mg/kg ip daily 68 days, vs vehicle littermate
IL6 = assay: ELISA of IL6 in cytosolic muscle extracts after single sulfasalazine injection; assay type: in vivo, mdx mice; settings: costal and crural diaphragms; SS 100 mg/kg ip single injection, 3 hours
Text: (§1) Each diaphragm was divided into costal and crural regions which were processed and analyzed separately. After determining protein concentrations for each of the cytosolic and nuclear extracts (Lowry assay), samples of each extract were used to obtain standard ELISA determinations of mouse TNFα, IL-6, and IL-1β using standard procedures (Assay Designs, Inc.). These particular NFκB products were chosen because of their role in the inflammatory reaction and previously published results indicating the presence of these cytokines in nondystrophic skeletal muscle homogenates (Molina et al., Neuroimmunomodulation, 4, 28-36, 1997; Jonsdottir et al., J. of Physiol. (Lond.), 528.1, 157-163, 2000; Lang et al., Shock, 19(6), 538-546, 2003).
(§2) MDX mice aged 3 to 3.5 months were injected with either SS (100 mg/kg) or vehicle (HEPES Ringer; in mM: 147.5 NaCl, 5 KCl, 2 CaCl2, 11 glucose, 5 HEPES, pH 7.35) and euthanized at 3 hours post-injection. The costal and crural diaphragms and the gastrocnemius muscle were then immediately removed and flash frozen before beginning the procedure to obtain nuclear and cytosolic extracts as described in Example 10. ELISA determinations of TNFα, Il1-β, and IL6 were determined as described in Example 9.

nuclear NFκB = assay: EMSA of nuclear NFκB binding in costal diaphragm nuclear extracts after single injection; assay type: in vivo, mdx mice; settings: sulfasalazine 100 mg/kg ip single injection, 3 hours, mdx 3 to 3.5 months
Experimental: MDX mice aged 3 to 3.5 months were injected with either sulfasalazine (SS; 100 mg/kg, ip) or vehicle (HEPES Ringer; in mM: 147.5 NaCl, 5 KCl, 2 CaCl2, 11 glucose, 5 HEPES, pH 7.35) and euthanized at 3 hours post-injection. The costal diaphragms were removed and flash frozen before beginning the extract procedure. Nuclear and cytosolic extracts were obtained using a procedure slightly modified from that described in Carlson et al. (2005) and Kumar and Boriek (2003). […] Protein determinations were determined by the method of Lowry using bovine serum albumin standards (20 μg nuclear protein was added to each lane).
; in mM: 147.5 NaCl, 5 KCl, 2 CaCl2, 11 glucose, 5 HEPES, pH 7.35; 0.1% DMSO) and euthanized at 3 hours post-injection. […] Protein determinations were determined by the method of Lowry using bovine serum albumin standards (20 μg nuclear protein was added to each lane).

IL1-β = assay: ELISA of IL1-β in cytosolic muscle extracts after single sulfasalazine injection; assay type: in vivo, mdx mice; settings: SS 100 mg/kg ip single injection, 3 hours
Text: as §1, §2

TNFα = assay: ELISA of TNFα in cytosolic muscle extracts after single sulfasalazine injection; assay type: in vivo, mdx mice; settings: mdx costal diaphragm; SS 100 mg/kg ip single injection, 3 hours
Text: as §1, §2

[1] = Observation of viability, side effects and body weight during treatment
nuclear NF-κB activation = settings: long term treatment; Durham et al. (2006); cited from earlier work
[2] = system: nondystrophic and mdx TS muscle fibers; assay: Effect of Gd^3+ on resting membrane potential of isolated TS muscle preparations; assay type: cell-based, mice
Experimental: The effect of the Ca^2+ channel blocker, Gd^3+, on the resting membrane potential was examined in both nondystrophic and mdx TS muscle preparations. Gd^3+ blocks both nonselective cation channels and more Ca^2+-selective leak channels (Franco et al., 1991 and Yang and Sachs, 1989) and, at concentrations of 20-100 μM, eliminates fluorometric determinations of resting Ca^2+ influx in a variety of cells (Broad et al., 1999, Carlson and Geisbuhler, 2003, Cox et al., 2002 and Samadi et al., 2005). […]
The potential effect of Gd^3+ on resting potential was determined in several nondystrophic (5-17 months) and mdx (5-11.5 months) TS preparations by first recording from several cells in normal HEPES Ringer solution, and then adding 100 μM GdCl3 to the solution while recording continuously from a single fiber. After removing the electrode from the fiber, the resting potential of several additional fibers were determined in the presence of the lanthanide. The average resting potential in nondystrophic fibers bathed in normal HEPES Ringer was −50.1±1.4 (SE) mV, a value lower than that recorded in this laboratory from nondystrophic diaphragm (−63±1.3 mV, N=98 fibers, 5 weeks to 2 years of age; Carlson and Roshek, 2001).

O=C(O)c1cc(/N=N/c2ccc(S(=O)(=O)Nc3ccccn3)cc2)ccc1O [sulfasalazine, Sulfasalazine]
resting potential of TS muscle fibers (mdx TS muscle fibers): significantly improves
resting potential of TS muscle fibers (mdx TS muscle fibers; listed as SS): significantly improved
expression of IL6 in cytosolic extracts (IL6): did reduce; also recorded: reduced
nuclear NFκB binding to consensus sequence / nuclear NF-kappaB activation (nuclear NFκB): may reduce
nuclear NFκB binding to consensus sequence / nuclear NF-kappaB activation (nuclear NFκB; listed as SS): reduction
expression of IL1-β in cytosolic extracts (IL1-β): did not reduce; also recorded: not influenced
expression of TNFα in cytosolic extracts (TNFα): reduced
body weight ([1]; SS 100 mg/kg ip daily 68 days): maintained their body weight
side-effects of chronic treatment schedule ([1]; SS 100 mg/kg ip daily 68 days): no obvious side-effects
side effects after injection ([1]; SS 100 mg/kg ip, aside from 5 to 10 sec restlessness): no obvious side effects

COc1cc(/C=C/C(=O)CC(=O)/C=C/c2ccc(O)c(OC)c2)ccc1O [curcumin, diferuloylmethane]
nuclear NF-κB activation in mdx costal diaphragm (nuclear NF-κB activation): did not reduce

[Cl][Gd]([Cl])[Cl] [Gd^3+, GdCl3]
change in resting potential, total sample of fibers ([2]; 100 μM GdCl3, failed to reach statistical significance in nondystrophic or mdx): slight hyperpolarization
effect on resting potential when added during recording ([2]; 100 μM GdCl3 added while recording from nondystrophic or mdx fibers): No effect
